Test results reported in patent publication US20220047507A1, “MELFLUFEN DOSAGE REGIMENS FOR CANCER” (ONCOPEPTIDES AB, priority 2015, published 2022).
Where “and” joins values, the source holds several entries; their conditions need not be identical. Equal values may be shown once.

Columns and labels:
[1] = test system: relapsed-refractory multiple myeloma (RRMM) patients; assay: Safety in patients with RRMM, Example 2a; type: in vivo, human; conditions: 40 mg
Method: (§1) Example 2: An open label single arm extension on the dose of 40 mg over 30 minutes of Example 1. Intravenous melflufen was administered over 30 minutes on Day 1 of a 21-day cycle or 28-day cycle (in combination with 40 mg dexamethasone (oral or intravenous) treatment on Days 1, 8 and 15) for at least 2 cycles, and up to the stated number of cycles. The cycle length was extended during the Example 2 Clinical Trial from 21 to 28 days per a protocol amendment to allow for a better recovery of neutrophils and thrombocytes before a new cycle is initiated.
(§2) Example 2a results are from a data cut-off of time point (a). Example 2b results are from a data cut-off of time point (bi) for the efficacy data, which was approximately 12 months after time point (a); and from a data cut-off of time point (bii) for the safety data, which was approximately 10 months after time point (a).
As mentioned above, by the data cut-off for Example 2a 38 patients had been dosed with 162 doses of melflufen hydrochloride 40 mg over 30 minutes. Median number of cycles was 3 (1-13) and median duration of treatment was 13 weeks (2-51 weeks). The dose intensity was 96% (77-100).

[2] = test system: relapsed-refractory multiple myeloma (RRMM) patients; assay: Efficacy in patients with RRMM, Example 2b, time point (bi); type: in vivo, human
Method: as §1, §2
By the data cut-off point (bi), […] (the 40 mg dosage excludes the mass of the salt component) administered over 30 minutes every 3 weeks (21 days) in combination with weekly dexamethasone (day 1, 8 and 15) or every 4 weeks (28 days) in combination with weekly dexamethasone (day 1, 8, 15 and 22).
[…] 10 patients were not evaluable for efficacy evaluation due to rapid early progression (8), or early termination due to adverse events (2).

[3] = Evaluable ≥ 2 cycles, n 30, listed as Melflufen
[4] = Pomalidomide refractory, Example 2b, efficacy evaluable N = 29
[5] = Pomalidomide refractory, Example 2b, treated patients N = 39
[6] = Triple refractory (2 PI/ImiD + 1 ImiD/PI), Example 2b, treated patients N = 39
[7] = refractory status Alkylator, Example 2b, treated patients N = 39
[8] = refractory status Cyclophosphamide, Example 2b, efficacy evaluable N = 29
[9] = refractory status Cyclophosphamide, Example 2b, treated patients N = 39
[10] = refractory status High dose melphalan, Example 2b, efficacy evaluable N = 29
[11] = refractory status High dose melphalan, Example 2b, treated patients N = 39
[12] = refractory status IMiD, Example 2b, treated patients N = 39
[13] = refractory status Low dose melphalan, Example 2b, efficacy evaluable N = 29
[14] = refractory status Low dose melphalan, Example 2b, treated patients N = 39
[15] = refractory status None, Example 2b, efficacy evaluable N = 29
[16] = refractory status None, Example 2b, treated patients N = 39
[17] = refractory status PI + IMiD + Alkylator, Example 2b, efficacy evaluable N = 29
[18] = refractory status PI + IMiD + Alkylator, Example 2b, treated patients N = 39
[19] = refractory status PI + IMiD, Example 2b, treated patients N = 39
[20] = refractory status PI, Example 2b, treated patients N = 39

## CCOC(=O)[C@H](Cc1ccc(F)cc1)NC(=O)[C@@H](N)Cc1ccc(N(CCCl)CCCl)cc1.Cl [melflufen, L-Melphalanyl-4-fluoro-L-phenylalanine ethyl ester]
[1]; Example 2a
  Serious TEAE related to melflufen: Diarrhoea: (3) %
  Serious TEAE related to melflufen: Diarrhoea, number of patients: 1
  Serious TEAE related to melflufen: Escherichia coli sepsis: (3) %
  Serious TEAE related to melflufen: Escherichia coli sepsis, number of patients: 1
  Serious TEAE related to melflufen: Febrile Neutropenia: (5) %
  Serious TEAE related to melflufen: Febrile Neutropenia, number of patients: 2
  Serious TEAE related to melflufen: Neutropenia: (3) %
  Serious TEAE related to melflufen: Neutropenia, number of patients: 1
  Serious TEAE related to melflufen: Pneumonia: (8) %
  Serious TEAE related to melflufen: Pneumonia, number of patients: 3
  Serious TEAE related to melflufen: Pyrexia: (5) %
  Serious TEAE related to melflufen: Pyrexia, number of patients: 2
[1]; Example 2a N = 38
  Anemia, treatment related ≥grade 3: (40) %
  Any treatment-related grade 3 and/or grade 4, grade 4: (50) %
  Any treatment-related grade 3 and/or grade 4, ≥grade 3: 87%
  Asthenia, treatment related ≥grade 3: (5) %
  Blood and lymphatic system disorders, treatment related grade 4: (47) %
  Blood and lymphatic system disorders, treatment related ≥grade 3: (76) %
  Fatigue, treatment related ≥grade 3: (5) %
  Febrile neutropenia, treatment related ≥grade 3: (5) %
  General disorders and administration site conditions, treatment related ≥grade 3: (18) %
  Hyperglycemia, treatment related grade 4: (3) %
  Hyperglycemia, treatment related ≥grade 3: (8) %
  Infections and infestations, treatment related ≥grade 3: (8) %
  Investigations, treatment related ≥grade 3: (10) %
  Leukopenia, treatment related grade 4: (13) %
  Leukopenia, treatment related ≥grade 3: (34) %
  Metabolism and nutrition disorders, treatment related grade 4: (3) %
  Metabolism and nutrition disorders, treatment related ≥grade 3: (8) %
  Neutropenia, treatment related grade 4: (26) %
  Neutropenia, treatment related ≥grade 3: (53) %
  Neutrophil count decreased, treatment related ≥grade 3: (10) %
  Pneumonia, treatment related ≥grade 3: (8) %
  Pyrexia, treatment related ≥grade 3: (5) %
  Thrombocytopenia, treatment related grade 4: (34) %
  Thrombocytopenia, treatment related ≥grade 3: (68) %
[1]; Example 2a N = 38, listed as melflufen hydrochloride
  Any treatment-related grade 3 and/or grade 4, ≥grade 3: (87) %
[1]; Example 2a, 38 patients
  patients with Serious TEAEs: 34%
  patients with TEAEs leading to death: 8%
  patients with TEAEs leading to dose reduction of melflufen: 18%
  patients with grade 3 or 4 TEAEs: 90%
  patients with treatment-related Serious TEAEs: 21%
[2]; Antibody refractory, Example 2b, efficacy evaluable N = 29
  CRR (≥MR): (50)+ %
[2]; Antibody refractory, Example 2b, treated patients N = 39
  CRR (≥MR): (33) %
[2]; Evaluable ≥ 1 cycle, n 40
  Clinical Benefit Rate (CBR): 50%
  Minimal Response (MR), patients: 8
  Overall Response Rate (ORR): 30%
  Positive Response (PR), patients: 9
  Progressive Disease (PD), patients: 9
  Stable Disease (SD), patients: 11
  Very Good Positive Response (PR), patients: 3
[2]; Evaluable ≥ 2 cycles, n 30
  Clinical Benefit Rate (CBR): 56% and 63%
  Overall Response Rate (ORR): 41% and 40%
  Positive Response (PR), patients: 9
  Progressive Disease (PD), patients: 1
  Stable Disease (SD), patients: 10
[2]; Evaluable ≥ 2 cycles, n 30, 40 mg over 30 min + dexamethasone
  Very Good Positive Response (PR), patients: 2
[2]; Evaluable ≥ 2 cycles, n 30, 40 mg over 30 min + dexamethasone, listed as Melflufen
  Very Good Positive Response (PR), patients: 3
[2]; [3]
  Clinical Benefit Rate (CBR): 63%
  Minimal Response (MR), patients: 7
  Overall Response Rate (ORR): 40%
[2]; Example 2b, 11 events in 12 responding patients
  median duration of response (DOR): 7.7 months
[2]; Example 2b, ITT-population (n=40)
  median progression free survival (PFS): 4.3 months
[2]; Example 2b, PP-population (efficacy evaluable, n=30)
  median progression free survival (PFS): 7.9 months
[2]; Example 2b, efficacy evaluable population
  increase in PFS compared to pomalidomide+dexamethasone and carfilzomib: around 4 months
[2]; [4]
  CRR (≥MR): (55) %
  ORR (≥PR): (36) %
[2]; [5]
  CRR (≥MR): (44) %
  ORR (≥PR): (25) %
[2]; Triple refractory (2 PI/ImiD + 1 ImiD/PI), Example 2b, efficacy evaluable N = 29
  CRR (≥MR): (70) %
[2]; [6]
  CRR (≥MR): (44) %
  ORR (≥PR): (25) %
[2]; of 30 evaluable
  best response of minimal response (MR) or better, n patients: 15 and 19
  partial response (PR) or better, n patients: 12
[2]; of the 8 patients refractory to an alkylator as their last line of treatment
  best response of PR or better, n patients: 5
[2]; refractory status Alkylator, Example 2b, efficacy evaluable N = 29
  CRR (≥MR): (73) %
[2]; [7]
  CRR (≥MR): (55) %
  ORR (≥PR): (36) %
[2]; [8]
  CRR (≥MR): (80) %
  ORR (≥PR): (60) %
[2]; [9]
  CRR (≥MR): (53) %
  ORR (≥PR): (40) %
[2]; [10]
  CRR (≥MR): (100) %
  ORR (≥PR): (67) %
[2]; [11]
  CRR (≥MR): (100) %
  ORR (≥PR): (33) %
[2]; refractory status IMiD, Example 2b, efficacy evaluable N = 29
  CRR (≥MR): (63) %
[2]; [12]
  CRR (≥MR): (47) %
  ORR (≥PR): (28) %
[2]; [13]
  CRR (≥MR): (60) %
  ORR (≥PR): (40) %
[2]; [14]
  CRR (≥MR): (67) %
  ORR (≥PR): (33) %
[2]; [15]
  CRR (≥MR): (100) %
  ORR (≥PR): (100) %
[2]; [16]
  CRR (≥MR): (100) %
  ORR (≥PR): (100) %
[2]; [17]
  CRR (≥MR): (44) %
  ORR (≥PR): (33) %
[2]; [18]
  CRR (≥MR): (40) %
  ORR (≥PR): (20) %
[2]; refractory status PI + IMiD, Example 2b, efficacy evaluable N = 29
  CRR (≥MR): (59) %
[2]; [19]
  CRR (≥MR): (46) %
  ORR (≥PR): (25) %
[2]; refractory status PI, Example 2b, efficacy evaluable N = 29
  CRR (≥MR): (63) %
[2]; [20]
  CRR (≥MR): (50) %
  ORR (≥PR): (25) %
